The text below walks through data of patent publication US11459624B2, “Compositions and methods for determining resistance to inhibitors of virus entry using recombinant virus assays” (MONOGRAM BIOSCIENCES, INC., priority 2004, dated 2022).

For this experiment, the system named is HIV-1. The experiment can be described thus: Phenotypic HIV-1 entry inhibitor susceptibility assay (pseudotyped virus, single-round infection, luciferase readout). The experiment is classed as cell-based. The settings on record: for IC50 for inhibition of entry, resistant HIV relative to sensitive reference virus / maximum percentage of inhibition, resistant viruses relative to sensitive viruses: log-sigmoid inhibition curves; for IC50 for inhibition of entry, resistant HIV relative to sensitive reference virus / completeness of inhibition of entry of resistant virus at high inhibitor concentrations / maximum percentage of inhibition, resistant viruses relative to sensitive viruses: viruses resistant to the inhibitor; for IC50 for inhibition of entry, resistant HIV relative to sensitive reference virus: FIG. 5; for maximum percentage of inhibition, resistant viruses relative to sensitive viruses: FIG. 6, FIG. 8. The procedure: Susceptibility assays for HIV-1 entry inhibitors were performed using packaging host cells consisting of the human embryonic kidney cell line 293 (Cell Culture Facility, UC San Francisco, SF, Calif.) and target host cells consisting of a human osteosarcoma (HOS) cell line expressing CD4 (HT4) plus CCR5, and CXCR4, or astrocytoma (U-87) cell lines expressing either CD4 and CCR5 or CD4 and CXCR4.
Drug susceptibility testing was performed using pHIVenv and pHIVluc or pHIVlucΔU3. Pseudotyped HIV particles containing envelope proteins encoded by the subject derived segment were produced by transfecting a packaging host cell (HEK 293) with resistance test vector DNA. Virus particles were collected about 48 h after transfection and were used to infect target cells (HT4/CCR5/CXCR4, or U-87/CD4/CXCR4, or U-87/CD4/CCR5) that express the HIV receptor (i.e. CD4) and co-receptors (i.e. CXCR4, CCR5). After infection (~72 h) the target cells are lysed and luciferase activity is measured. HIV must complete one round of replication to successfully infect the target host cell and produce luciferase activity. The amount of luciferase activity detected in the infected cells is used as a direct measure of “infectivity” (FIGS. 1 and 2). […] Drug susceptibility is assessed by comparing the infectivity in the absence of drug to infectivity in the presence of drug.
Packaging host cells were seeded in 10-cm-diameter dishes and were transfected one day after plating with pHIVenv and pHIVluc or pHIVlucΔU3. Transfections were performed using a calcium-phosphate co-precipitation procedure. The cell culture media containing the DNA precipitate was replaced with fresh medium, from one to 24 hours, after transfection. Cell culture media containing viral particles was typically harvested 2 days after transfection and was passed through a […] filter. Before infection, target cells were plated in cell culture media. […] Typically, 3 days after infection target cells were assayed for luciferase activity using the Steady-Glo reagent (Promega) and a luminometer.
However, any such susceptibility assay known by one of skill in the art can in principle be used in the methods for determining phenotypic drug susceptibility. Drug susceptibility can be plotted, for example, as percent inhibition versus log10 drug concentration and defined based on, for example, the IC50 and percent inhibition at the highest drug concentration. […] In this example, the phenotypic drug susceptibility assay of Example 1 was used to determine a log-sigmoid curve showing the resistance of mutant HIV to SCH-C, TNX-355, T-20, and AMD-3100.

Turning to `c1cc(CN2CCCNCCNCCCNCC2)ccc1CN1CCCNCCNCCCNCC1` [AMD-3100], the “IC50 for inhibition of entry, resistant HIV relative to sensitive reference virus” value is listed as “increased IC50” and the “completeness of inhibition of entry of resistant virus at high inhibitor concentrations” value is “can be completely inhibited”.
For the compound `CCO/N=C(\c1ccc(Br)cc1)C1CCN(C2(C)CCN(C(=O)c3c(C)cc[n+]([O-])c3C)CC2)CC1` [SCH-C], the “maximum percentage of inhibition, resistant viruses relative to sensitive viruses” value is “reduced maximum percentage of inhibition”.
With “TNX-355: HIV entry inhibitor (Tanox Inc.), non-competitive”, the “maximum percentage of inhibition, resistant viruses relative to sensitive viruses” value is on record as “reduced maximum percentage of inhibition”.
With enfuvirtide, the “IC50 for inhibition of entry, resistant HIV relative to sensitive reference virus” value is recorded as “increased IC50” and the “completeness of inhibition of entry of resistant virus at high inhibitor concentrations” value is recorded as “can be completely inhibited”. For the same compound, the “susceptibility of viruses with drug resistance mutations in the gp41 envelope protein” value (cells expressing CD4, CCR5 and CXCR4, isogenic viruses with one or two gp41 mutations, FIG. 4B) is “reduced susceptibility”.
